Where two headings read alike, the source gives them in different places.
Columns and labels:
[1] = biological target: NSD2 [1-1365] (Homo sapiens (Human), UniProt O96028); assay: LC-MS/MS-based NSD2 enzymatic assay (SAH production); format: biochemical; conditions: read-out: NSD2 IC50
Outline: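 SAH formed was measured by LC-MS/MS using d4-SAH as internal standard and an SAH calibration curve. Compounds were preincubated 20 min with NSD2 [1-1365] and SAM; mouse-liver nucleosome then started a 90 min room-temperature reaction (8 nM enzyme, 1 μM SAM, 400 nM nucleosome final, pH 8.0), stopped with TFA.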

[2] = system: cellular H3K36me2 level in thyroid carcinoma cell line CGTH-W-1 (NSD2 E1099K); assay: H3K36me2 cellular ELISA assay in CGTH-W-1 line; format: cell-based; conditions: Homo sapiens, CGTH-W-1, 72 h, read-out: H3K36me2 ELISA in CGTH-W-1
Experimental: H3K36Me2 Cellular ELISA Assay in CGTH-W-1 Line
An ELISA (enzyme-linked immunosorbent assay) based assay was used to test the ability of candidate compound to reduce cellular H3K36me2 level in thyroid carcinoma cell line CGTH-W-1, carrying NSD2 E1099K gain of function mutation. CGTH-W-1 (DSMZ) cells are maintained in RPM11640 media with 10% FBS and 50 U/ml Penicillin-Streptomycin.
Cells were treated with tested compounds at the desired concentration for 72 hours.
Histone bound plates were washed and blocked with 5% BSA. […] The abundance of H3K36me2 and total H3 was measured by Chemiluminesce on a plate reader. Cell viability was monitored on a parallel seeded plate with CellTiter-Glo reagent (Promega #G7573).

[3] = system: cellular H3K36me2 level in multiple myeloma cell line KMS11 (t(4;14)+); assay: H3K36me2 cellular ELISA assay in KMS11-Par line; format: cell-based; conditions: Homo sapiens, KMS-11, ELISA, read-out: H3K36me2 ELISA in KMS11-Par
Outline: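 After 72 h compound exposure, HCl-extracted histones from KMS11 (t(4;14)+) cells were probed by ELISA for H3K36me2 against total H3 with a chemiluminescence read-out. Cells were plated at 1,250/well in Opti-MEM plus B-27 and N2 the day before. A parallel CellTiter-Glo plate tracked viability.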

[4] = NSD2 biochemical activity, class symbols
[5] = KMS11-Par line (t(4;14)+), 72 hours treatment

NSD2 [1-1365], sequence (O96028 whole entry): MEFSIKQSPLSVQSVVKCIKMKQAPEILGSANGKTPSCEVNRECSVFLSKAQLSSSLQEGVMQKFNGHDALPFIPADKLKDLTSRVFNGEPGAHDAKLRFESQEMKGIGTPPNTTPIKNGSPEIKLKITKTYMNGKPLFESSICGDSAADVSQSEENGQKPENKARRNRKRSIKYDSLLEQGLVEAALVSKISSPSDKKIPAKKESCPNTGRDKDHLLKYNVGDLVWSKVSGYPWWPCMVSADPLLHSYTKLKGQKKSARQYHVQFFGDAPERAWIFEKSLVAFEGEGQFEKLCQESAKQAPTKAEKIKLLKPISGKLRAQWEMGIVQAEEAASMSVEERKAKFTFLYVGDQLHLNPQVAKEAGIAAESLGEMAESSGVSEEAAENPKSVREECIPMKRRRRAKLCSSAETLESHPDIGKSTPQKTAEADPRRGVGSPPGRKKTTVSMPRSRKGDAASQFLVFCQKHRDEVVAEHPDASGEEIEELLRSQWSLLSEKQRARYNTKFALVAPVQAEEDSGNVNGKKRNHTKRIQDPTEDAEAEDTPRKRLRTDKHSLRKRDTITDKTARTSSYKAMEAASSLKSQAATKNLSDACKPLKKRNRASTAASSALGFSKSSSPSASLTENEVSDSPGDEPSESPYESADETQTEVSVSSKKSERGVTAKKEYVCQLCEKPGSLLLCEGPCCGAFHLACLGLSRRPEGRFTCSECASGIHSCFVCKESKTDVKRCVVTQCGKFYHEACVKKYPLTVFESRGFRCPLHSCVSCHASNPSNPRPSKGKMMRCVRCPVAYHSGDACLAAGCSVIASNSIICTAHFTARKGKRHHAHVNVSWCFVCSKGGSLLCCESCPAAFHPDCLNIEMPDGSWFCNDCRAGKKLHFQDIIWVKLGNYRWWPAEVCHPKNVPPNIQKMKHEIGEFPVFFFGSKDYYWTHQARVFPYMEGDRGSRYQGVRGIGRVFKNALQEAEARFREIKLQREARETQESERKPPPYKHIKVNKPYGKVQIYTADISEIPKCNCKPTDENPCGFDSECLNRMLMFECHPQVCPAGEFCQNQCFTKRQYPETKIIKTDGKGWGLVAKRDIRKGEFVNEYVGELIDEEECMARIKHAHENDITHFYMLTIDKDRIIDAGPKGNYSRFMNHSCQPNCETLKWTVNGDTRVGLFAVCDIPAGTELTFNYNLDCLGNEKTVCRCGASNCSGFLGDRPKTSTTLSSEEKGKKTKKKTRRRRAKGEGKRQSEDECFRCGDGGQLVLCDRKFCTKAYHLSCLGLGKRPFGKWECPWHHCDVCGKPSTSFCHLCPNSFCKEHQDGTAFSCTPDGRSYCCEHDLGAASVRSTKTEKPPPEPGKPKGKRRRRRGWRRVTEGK

| SMILES | IC50 [1] [nM] | IC50 [2] [nM] | IC50 ([3]; KMS11-Par line, 72 hours) [nM] | IC50 [1, 4] [nM] | IC50 [3, 5] [nM] |
| --- | --- | --- | --- | --- | --- |
| Nc1ncnc2c1ncn2Cc1cc(-c2ccc(F)c(F)c2)ncc1N1CCC[C@](N)(c2nc(Cl)ccc2F)C1 [Example 192, (R)-9-((5-(3-amino-3-(6-chloro-3-fluoropyridin-2-yl)piperidin-1-yl)-2-(3,4-difluorophenyl)pyridin-4-yl)methyl)-9H-purin-6-amine] | 10 to 1000 | 731 | 2180 |  |  |
| Nc1ncnc2c1ncn2Cc1cc(C2CCCCC2)ncc1N1CCC[C@](N)([C@@H](O)C(F)F)C1 [Example 130, (R)-1-((R)-3-amino-1-(4-((6-amino-9H-purin-9-yl)methyl)-6-cyclohexylpyridin-3-yl)piperidin-3-yl)-2,2-difluoroethan-1-ol] |  | 321 |  | 1 to 10 | 3520 |
| Nc1ncnc2c1ncn2Cc1cc(-c2cc(F)c(F)cc2C(F)F)ncc1N1CCC[C@](N)([C@@H](O)C(F)F)C1 [Example 170, (R)-1-((R)-3-amino-1-(4-((6-amino-9H-purin-9-yl)methyl)-6-(2-(difluoromethyl)-4,5-difluorophenyl)pyridin-3-yl)piperidin-3-yl)-2,2-difluoroethan-1-ol] | 10 to 1000 | 161 | 1470 |  |  |
| Nc1ncnc2c1ncn2Cc1cc(-c2cc(F)c(O)cc2F)ncc1N1CCC[C@](N)([C@H](O)C(F)F)C1 [Example 144, 4-(5-((R)-3-amino-3-((S)-2,2-difluoro-1-hydroxyethyl)piperidin-1-yl)-4-((6-amino-9H-purin-9-yl)methyl)pyridin-2-yl)-2,5-difluorophenol] |  | 2580 |  | 10 to 1000 | 10400 |
| Nc1ncnc2c1ncn2Cc1cc(-c2ccc(F)c(F)c2)ncc1N1CCC[C@](N)(c2cccc(C(F)F)n2)C1 [Example 227, (R)-9-((5-(3-amino-3-(6-(difluoromethyl)pyridin-2-yl)piperidin-1-yl)-2-(3,4-difluorophenyl)pyridin-4-yl)methyl)-9H-purin-6-amine] | 10 to 1000 | 133 | 302 |  |  |
| Nc1ncnc2c1ncn2Cc1cc(-c2ccc(F)cc2C(F)F)ncc1N1CCC[C@](N)([C@@H](O)C(F)F)C1 [Example 158, (R)-1-((R)-3-amino-1-(4-((6-amino-9H-purin-9-yl)methyl)-6-(2-(difluoromethyl)-4-fluorophenyl)pyridin-3-yl)piperidin-3-yl)-2,2-difluoroethan-1-ol] |  | 100 |  | 1 to 10 | 802 |
| Nc1ncnc2c1ncn2Cc1cc(-c2ccc(F)cc2F)ncc1N1CCC[C@](N)(c2cccc(Cl)n2)C1 [Example 238, (R)-9-((5-(3-amino-3-(6-chloropyridin-2-yl)piperidin-1-yl)-2-(2,4-difluorophenyl)pyridin-4-yl)methyl)-9H-purin-6-amine] | 1 to 10 | 588 | 1340 |  |  |
| Nc1ncnc2c1ncn2Cc1cc(-c2ccc(F)c(F)c2)ncc1N1CCC[C@](N)([C@@H](O)C(F)F)C1 [Example 113, (R)-1-((R)-3-amino-1-(4-((6-amino-9H-purin-9-yl)methyl)-6-(3,4-difluorophenyl)pyridin-3-yl)piperidin-3-yl)-2,2-difluoroethan-1-ol] |  | 145 |  | 10 to 1000 | 753 |
| COc1cc(F)ccc1-c1cc(Cn2cnc3c(N)ncnc32)c(N2CCC[C@](N)([C@H](O)C(F)F)C2)cn1 [Example 173, (S)-1-((R)-3-amino-1-(4-((6-amino-9H-purin-9-yl)methyl)-6-(4-fluoro-2-methoxyphenyl)pyridin-3-yl)piperidin-3-yl)-2,2-difluoroethan-1-ol] | 10 to 1000 | 1040 | 12800 |  |  |
| COc1ccc(-c2cc(Cn3cnc4c(N)ncnc43)c(N3CCC[C@](N)([C@@H](O)C(F)F)C3)cn2)cc1F [Example 131, (R)-1-((R)-3-amino-1-(4-((6-amino-9H-purin-9-yl)methyl)-6-(3-fluoro-4-methoxyphenyl)pyridin-3-yl)piperidin-3-yl)-2,2-difluoroethan-1-ol] |  | 142 |  | 1 to 10 | 887 |
| Nc1ncnc2c1ncn2Cc1cc(-c2ccc(OC(F)F)c(F)c2)ncc1N1CCC[C@](N)([C@@H](O)C(F)F)C1 [Example 119, (R)-1-((R)-3-amino-1-(4-((6-amino-9H-purin-9-yl)methyl)-6-(4-(difluoromethoxy)-3-fluorophenyl)pyridin-3-yl)piperidin-3-yl)-2,2-difluoroethan-1-ol] |  | 228 |  | 1 to 10 | 1490 |
| COc1ccc(-c2cc(Cn3cnc4c(N)ncnc43)c(N3CCC[C@](N)(c4cccc(Cl)n4)C3)cn2)c(F)c1 [Example 181, (R)-9-((5-(3-amino-3-(6-chloropyridin-2-yl)piperidin-1-yl)-2-(2-fluoro-4-methoxyphenyl)pyridin-4-yl)methyl)-9H-purin-6-amine] | 10 to 1000 | 1560 | 1980 |  |  |
| Nc1ncnc2c1ncn2Cc1cc(-c2cc(F)c(F)cc2F)ncc1N1CCC[C@](N)([C@H](O)C(F)F)C1 [Example 157, (S)-1-((R)-3-amino-1-(4-((6-amino-9H-purin-9-yl)methyl)-6-(2,4,5-trifluorophenyl)pyridin-3-yl)piperidin-3-yl)-2,2-difluoroethan-1-ol] |  | 385 |  | 1 to 10 | 1310 |
| Cc1cccc([C@@]2(N)CCCN(c3cnc(-c4ccc(F)c(F)c4)cc3Cn3cnc4c(N)ncnc43)C2)[n+]1[O-] [Example 232, (R)-2-(3-amino-1-(4-((6-amino-9H-purin-9-yl)methyl)-6-(3,4-difluorophenyl)pyridin-3-yl)piperidin-3-yl)-6-methylpyridine 1-oxide] | 10 to 1000 | 1470 | 7650 |  |  |
| COc1ccc(-c2cc(Cn3cnc4c(N)ncnc43)c(N3CCC[C@](N)(C(O)C(F)F)C3)cn2)c(C(F)(F)F)c1 (stereo in doubt) [Example 167, (R)-1-((R)-3-amino-1-(4-((6-amino-9H-purin-9-yl)methyl)-6-(4-methoxy-2-(trifluoromethyl)phenyl)pyridin-3-yl)piperidin-3-yl)-2,2-difluoroethan-1-ol] | 10 to 1000 | 559 | 6120 |  |  |
| Nc1ncnc2c1ncn2Cc1cc(-c2ccc(OC(F)F)cc2F)ncc1N1CCC[C@](N)([C@H](O)C(F)F)C1 [Example 153, (S)-1-((R)-3-amino-1-(4-((6-amino-9H-purin-9-yl)methyl)-6-(4-(difluoromethoxy)-2-fluorophenyl)pyridin-3-yl)piperidin-3-yl)-2,2-difluoroethan-1-ol] |  | 217 |  | 10 to 1000 | 5080 |
| Nc1ncnc2c1ncn2Cc1cc(-c2ccc(F)c(F)c2)ncc1N1CCC[C@](N)([C@H](F)c2ccccn2)C1 [Example 91, 9-((5-((R)-3-amino-3-((S)-fluoro(pyridin-2-yl)methyl)piperidin-1-yl)-2-(3,4-difluorophenyl)pyridin-4-yl)methyl)-9H-purin-6-amine] |  | 121 |  | 1 to 10 | 890 |
| Nc1ncnc2c1ncn2Cc1cc(-c2ccc(F)c(Cl)n2)ncc1N1CCC[C@](N)(c2cccc(Cl)n2)C1 [Example 191, (R)-9-((5-(3-amino-3-(6-chloropyridin-2-yl)piperidin-1-yl)-6′-chloro-5′-fluoro-[2,2′-bipyridin]-4-yl)methyl)-9H-purin-6-amine] | 10 to 1000 | 1380 | 4560 |  |  |
| Nc1ncnc2c1ncn2Cc1cc(-c2ccc(F)c(Cl)n2)ncc1N1CCC[C@](N)([C@H](O)C(F)F)C1 [Example 175, (S)-1-((R)-3-amino-1-(4-((6-amino-9H-purin-9-yl)methyl)-6′-chloro-g-fluoro-[2,2′-bipyridin]-5-yl)piperidin-3-yl)-2,2-difluoroethan-1-ol] | 10 to 1000 | 534 | 11300 |  |  |
| CC1CCCCN1C(=O)C1(N)CCCN(c2cnc(-c3ccc(F)c(F)c3)cc2Cn2cnc3c(N)ncnc32)C1 (stereo not drawn) [Example 87, (3-amino-1-(4-((6-amino-9H-purin-9-yl)methyl)-6-(3,4-difluorophenyl)pyridin-3-yl)piperidin-3-yl)(2-methylpiperidin-1-yl)methanone] |  | 1600 |  | 10 to 1000 | 6420 |
| COc1ccc(-c2cc(Cn3cnc4c(N)ncnc43)c(N3CCC[C@](N)([C@@H](O)C(F)F)C3)cn2)c(Cl)c1 [Example 169, (R)-1-((R)-3-amino-1-(4-((6-amino-9H-purin-9-yl)methyl)-6-(2-chloro-4-methoxyphenyl)pyridin-3-yl)piperidin-3-yl)-2,2-difluoroethan-1-ol] | 10 to 1000 | 426 | 2990 |  |  |
